The values that follow come from patent US8343963B2, “Sulfamoyl-phenyl-ureido compounds and their use as medicament” (4SC AG, priority 2009, dated 2013).

Series [1] has as its system multiresistant Dd2 strain of Plasmodium falciparum. The experiment in a line: Antiplasmodial activity against Dd2 strain of Plasmodium falciparum ([8-3H]hypoxanthine incorporation). It counts as cell-based. The settings on record: 66 h, P. falciparum Dd2, 48 h + 18 h with [8-3H]hypoxanthine, 50% parasite growth inhibition, read-out: Antiplasmodia activity (IC50 class). Put shortly:
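Dd2 parasites at 0.3% parasitaemia and 2.5% haematocrit in RPMI 1640 with 10% human serum were exposed to 0.001–100 μM compound for 48 h. [8-3H]hypoxanthine was then added for a further 18 h and incorporation counted by scintillation. IC50 was fitted as 50% growth inhibition.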

The nature of series [2]: Solubility and solubility-range determination in 50 mM phosphate buffer at different pH. The format is physicochemical. As to conditions: aqueous buffer, kinetic from dmso stock, 1% DMSO, 23° C., read-out: Solubility or solubility range. The method, then:
The compounds were dissolved in DMSO at a concentration of 20 mg/ml. These stock solutions were further diluted 1:1 with DMSO (50 μl solution+50 μl DMSO) in seven steps. Subsequently, these solutions were diluted 1:100 (5 μl DMSO-stock+495 μl 50 mM phosphate buffer) in all four pH buffers (respectively: pH=4; pH=6; pH=7.4; pH=9) resulting in a final DMSO concentration of 1% in the buffers. These dilutions were vigorously mixed and transferred into 96-well reading plate. The plates were incubated in a shaker (600 rpm) at 23° C. for 24 hours. After that, the contents of the wells were mixed with a pipette and optical density (OD) was recorded at wavelengths of 550 nm; 600 nm; 650 nm and 700 nm in the Tecan Sunrise plate reader. The cut-off OD sum for an undissolved concentration of a compound was defined as follows: Cut off OD sum=mean blank OD+0.050 OD. For the determination of the solubility range, the following rule was applied: OD>cut off=>compound not dissolved at this concentration OD<cut-off=>compound dissolved at this concentration For the determination of the solubility, a titration curve (OD/concentration) was prepared and the concentrations were determined based on the measured OD of the mixture supernatant after centrifugation. The solubility values are given in μg/ml (table 3).

A short description of series [3]: In vitro clearance using human liver microsomes. The format is in vitro ADME. As to conditions: human liver microsomes 0.5 mg/ml, 1 μM compound, 37° C., 0-30 min. The method, then:
These experiments were performed at Nikem Research (Via Zambeletti 25; Baranzate, Milan, Italy). Test compounds in duplicate at the final concentration of 1 μM were dissolved in DMSO and pre-incubated for 10 min at 37° C. in phosphate buffer pH 7.4, 3 mM MgCl2, with human liver microsomes at the final concentration of 0.5 mg/ml. After the pre-incubation period, reaction was started by adding the cofactor mixture (NADP, Glc6P, G6P-DH); samples were taken at time 0, 5, 10, 15, 20 and 30 min and added to acetonitrile to quench the metabolic reaction, centrifuged and supernatant analysed and quantified by HPLC/MS. A control sample without cofactors was always added in order to check the chemical stability of test compounds. 7-ethoxycoumarin was added as reference standard. A fixed concentration of verapamil was added in every sample as internal standard for HPLC/MS. The concentration of the remaining compound at different times was determined by HPLC/MS. The rate constant, k (min^−1) derived for the exponential decay equation (peak area vs time) was used to calculate the rate of intrinsic clearance (Cli) of the compounds using the following equations: Cli (μl/min/mg compound)=k×V; where: V (μl/mg compound)=incubation volume/mg compound added. In table 3 the clearance (in vitro metabolic stability) classification was as follows: Cli<10=compound stable; Cli between 10 and 60=low metabolism; Cli between 60 and 600=medium metabolism Cli>600=high metabolism.

Values after ≈ are worked out from the molar mass of the structure shown. Read-outs that look alike come from different tables or passages of the source. A value given as a limit tells only on which side of the number the result lay.

For the compound `CCCCN1CCN(C(=N)c2cccc(NC(=O)Nc3ccc(S(=O)(=O)NCc4ccc(S(N)(=O)=O)cc4)cc3)c2)CC1` [Compound 34, 4-(3-(3-((4-butylpiperazin-1-yl)(imino)methyl)phenyl)ureido)-N-(4-sulfamoylbenzyl)benzenesulfonamide], in series [1], the half-inhibitory concentration (IC50) is under 20 nM. For the same compound, the solubility at 24 h in series [2] (pH 4, 50 mM phosphate buffer) came out at 960 µg/mL (≈ 1530 µM); in series [2] (pH 6, 50 mM phosphate buffer) it was 960 µg/mL (≈ 1530 µM); in series [2] (pH 7.4, 50 mM phosphate buffer), 750 µg/mL (≈ 1190 µM); in series [2] (pH 9, 50 mM phosphate buffer) it was 540 µg/mL (≈ 860 µM). Moreover, in series [3], the “In vitro metabolism as determined from Cli” value (“In vitro metabolism” below) is “medium (Cli between 60 and 600=medium metabolism)”.
With `CCCN1CCN(C(=N)c2cccc(NC(=O)Nc3ccc(S(=O)(=O)NCc4ccc(S(N)(=O)=O)cc4)cc3)c2)CC1` [Compound 38, 4-(3-(3-(imino(4-propylpiperazin-1-yl)methyl)phenyl)ureido)-N-(4-sulfamoylbenzyl)benzenesulfonamide], the half-inhibitory concentration (IC50) in series [1] is under 20 nM. Also, the solubility at 24 h was over 200 µg/mL in series [2] (pH 4, 50 mM phosphate buffer); over 200 µg/mL in series [2] (pH 6, 50 mM phosphate buffer); over 200 µg/mL in series [2] (pH 7.4, 50 mM phosphate buffer); over 200 µg/mL in series [2] (pH 9, 50 mM phosphate buffer). In series [3], the “In vitro metabolism” value was “medium (Cli between 60 and 600=medium metabolism)”.
In the case of `N=C(c1cccc(NC(=O)Nc2ccc(S(=O)(=O)NCc3ccc(S(N)(=O)=O)cc3)cc2)c1)N1CCNCC1` [Compound 52, 4-(3-(3-(imino(piperazin-1-yl)methyl)phenyl)ureido)-N-(4-sulfamoylbenzyl)benzenesulfonamide], the half-inhibitory concentration (IC50) in series [1] was in the range of 20 to 200 nM. Further, the solubility at 24 h in series [2] (pH 4, 50 mM phosphate buffer) was over 200 µg/mL; in series [2] (pH 6, 50 mM phosphate buffer) it was over 200 µg/mL; in series [2] (pH 7.4, 50 mM phosphate buffer) it was over 200 µg/mL; in series [2] (pH 9, 50 mM phosphate buffer) it was over 200 µg/mL. In addition, in series [3], the “In vitro metabolism” value was “low (Cli between 10 and 60=low metabolism)”.
`CCC(=O)N1CCN(C(=N)c2cccc(NC(=O)Nc3ccc(S(=O)(=O)NCc4ccc(S(N)(=O)=O)cc4)cc3)c2)CC1` [Compound 58, 4-(3-(3-(imino(4-propionylpiperazin-1-yl)methyl)phenyl)ureido)-N-(4-sulfamoylbenzyl)benzenesulfonamide]: the IC50 in series [1] was under 20 nM. Also, the solubility at 24 h in series [2] (pH 4, 50 mM phosphate buffer) is over 200 µg/mL; in series [2] (pH 6, 50 mM phosphate buffer), over 200 µg/mL; in series [2] (pH 7.4, 50 mM phosphate buffer) it was over 200 µg/mL; in series [2] (pH 9, 50 mM phosphate buffer), over 200 µg/mL. Besides, the “In vitro metabolism” value in series [3] was “low (Cli between 10 and 60=low metabolism)”.
As to `COC(=O)N1CCN(C(=N)c2cccc(NC(=O)Nc3ccc(S(=O)(=O)NCc4ccc(S(N)(=O)=O)cc4)cc3)c2)CC1` [Compound 60, methyl 4-(imino(3-(3-(4-(N-(4-sulfamoylbenzyl)sulfamoyl)phenyl)ureido)phenyl)methyl)piperazine-1-carboxylate], the 50% inhibitory concentration (IC50) in series [1] is under 20 nM. For the same compound, the solubility at 24 h stood at 1480 µg/mL (≈ 2350 µM) in series [2] (pH 4, 50 mM phosphate buffer); 1290 µg/mL (≈ 2040 µM) in series [2] (pH 6, 50 mM phosphate buffer); 763 µg/mL (≈ 1210 µM) in series [2] (pH 7.4, 50 mM phosphate buffer); 456 µg/mL (≈ 724 µM) in series [2] (pH 9, 50 mM phosphate buffer). Further, the “In vitro metabolism” value in series [3] is “medium (Cli between 60 and 600=medium metabolism)”.
In the case of `CN(C)C(=N)c1cccc(NC(=O)Nc2ccc(S(=O)(=O)NCc3ccc(S(N)(=O)=O)cc3)cc2)c1` [Compound 64, N,N-dimethyl-3-(3-(4-(N-(4-sulfamoylbenzyl)sulfamoyl)phenyl)ureido)benzimidamide], the 50% inhibitory concentration (IC50) in series [1] lay within 210 to 990 nM. Also, the “In vitro metabolism” value in series [3] is “low (Cli between 10 and 60=low metabolism)”.
Consider `N#CCCN1CCN(C(=N)c2cccc(NC(=O)Nc3ccc(S(=O)(=O)NCc4ccc(S(N)(=O)=O)cc4)cc3)c2)CC1` [Compound 65, 4-(3-(3-((4-(2-cyanoethyl)piperazin-1-yl)(imino)methyl)phenyl)ureido)-N-(4-sulfamoylbenzyl)benzene sulfonamide], for which the IC50 in series [1] fell in the range of 210 to 990 nM. Further, the “In vitro metabolism” value in series [3] is “medium (Cli between 60 and 600=medium metabolism)”.
Take `N=C(c1cccc(NC(=O)Nc2ccc(S(=O)(=O)NCc3ccc(S(N)(=O)=O)cc3)cc2)c1)N1CCN(CC2CC2)CC1` [Compound 66, 4-(3-(3-((4-(cyclopropylmethyl)piperazin-1-yl)(imino)methyl)phenyl)ureido)-N-(4-sulfamoylbenzyl)benzene sulfonamide]: the half-maximal inhibitory concentration (IC50) in series [1] was under 20 nM. The “In vitro metabolism” value in series [3] is “medium (Cli between 60 and 600=medium metabolism)”.
For `COCCN1CCN(C(=N)c2cccc(NC(=O)Nc3ccc(S(=O)(=O)NCc4ccc(S(N)(=O)=O)cc4)cc3)c2)CC1` [Compound 69, 4-(3-(3-(imino(4-(2-methoxyethyl)piperazin-1-yl)methyl)phenyl)ureido)-N-(4-sulfamoylbenzyl)benzene sulfonamide], in series [1], the IC50 lay within 20 to 200 nM. In addition, the “In vitro metabolism” value in series [3] was “medium (Cli between 60 and 600=medium metabolism)”.
For the compound `CCCCN1CCN(C(=N)c2cccc(NC(=O)Nc3ccc(S(=O)(=O)NCc4ccc(S(N)(=O)=O)s4)cc3)c2)CC1` [Compound 70, 5-((4-(3-(3-((4-butylpiperazin-1-yl)(imino)methyl)phenyl)ureido)phenylsulfonamido)methyl)thiophene-2-sulfonamide], in series [1], the IC50 lay within 20 to 200 nM. In series [3], the “In vitro metabolism” value was “medium (Cli between 60 and 600=medium metabolism)”.
